Measured values as given in US20060229209A1, “Copolymers based on n-vinylamide as adjuvants and agents for using in the agrotechnical field” (priority 2002, published 2006).

Tested on: Puccinia recondita
Test: Improvement in the fungicidal activity: wheat leaves inoculated with Puccinia recondita, sprayed with fungicide plus test additive, visual assessment of infestation
Type: in vivo, Puccinia recondita on wheat variety "Kanzler"
Details: no test additive, 8 days in greenhouse after spraying
Protocol: Both of the leaves which developed first of wheat seeds of the variety “Kanzler”, which were raised in pots, were dusted with spores of Puccinia recondita. In order to guarantee the success of the artificial inoculation, the plants were kept for 24 hours in a humidity chamber without light at a relative humidity of 95 to 99% and a temperature of 20 to 22° C. The next day, the plants were sprayed with an aqueous suspension comprising fungicide at the concentration given below as a mixture with water and 125 ppm of the test additive. The plants were allowed to dry in the air. The experimental plants were subsequently cultivated in a greenhouse for 8 days at a temperature of 22 to 26° C. and a relative humidity of between 40 and 80%. The extent of the fungal infestation on the leaves was assessed visually and expressed as a percentage of the affected leaf area with respect to the unaffected leaf area.

Row | Compound | % affected leaf area (Pyraclostrobin 1 ppm a.c.) [%] | % affected leaf area (Pyraclostrobin 2 ppm a.c.) [%] | % affected leaf area (Epoxiconazole 0.125 ppm a.c.) [%] | % affected leaf area (Epoxiconazole 0.25 ppm a.c.) [%]
1 | COC(=O)N(OC)c1ccccc1COc1ccn(-c2ccc(Cl)cc2)n1 [Pyraclostrobin, pyraclostrobin] | 32 | 13 |  | 
2 | Fc1ccc([C@]2(Cn3cncn3)O[C@H]2c2ccccc2Cl)cc1 (racemic) [Epoxiconazole, epoxiconazole] |  |  | 53 | 47
